In patent US5710149A, “Piperazine derivatives as 5-ht antagonists” (John Wyeth & Brother, Ltd., priority 1991, dated 1998):

Legend:
5-HT1A receptor [1] = molecular target: T1, 5-HT1A receptor (Rattus norvegicus, UniProt P19327); experiment: 5-HT1A receptor binding activity in rat hippocampal membrane homogenate
T1 construct: rat hippocampal membrane homogenated; from tissue; host or cells: rat hippocampus, membrane homogenate
T1 sequence (P19327 1-422): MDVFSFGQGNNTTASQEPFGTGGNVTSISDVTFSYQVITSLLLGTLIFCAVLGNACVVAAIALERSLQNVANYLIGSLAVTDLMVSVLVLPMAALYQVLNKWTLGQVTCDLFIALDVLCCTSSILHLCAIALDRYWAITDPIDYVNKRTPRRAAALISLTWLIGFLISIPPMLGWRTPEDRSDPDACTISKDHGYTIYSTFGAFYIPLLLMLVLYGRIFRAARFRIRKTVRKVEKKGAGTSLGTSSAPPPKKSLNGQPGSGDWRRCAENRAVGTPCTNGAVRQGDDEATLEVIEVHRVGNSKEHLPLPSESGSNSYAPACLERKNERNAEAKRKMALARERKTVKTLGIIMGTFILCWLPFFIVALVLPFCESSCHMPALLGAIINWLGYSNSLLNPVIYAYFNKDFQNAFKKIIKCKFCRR
Method: The compounds of the invention are tested for 5-HT1A receptor binding activity in rat hippocampal membrane homogenated by the method of B. S. Alexander and M. D. Wood, J Pharm Pharmacol, 1988, 40, 888-891.

5-HT1A receptor [2] = molecular target: T2, 5-HT1A receptor (Cavia porcellus, UniProt A0A286Y074); experiment: 5-HT1A receptor antagonism: antagonism of 5-carboxamido-tryptamine in the guinea-pig ileum in vitro; details: read-out: pA2, antagonism of 5-carboxamido-tryptamine (converted)
T2 construct: guinea-pig ileum in vitro; from tissue; host or cells: guinea-pig ileum, isolated tissue
T2 sequence (A0A286Y074 1-421): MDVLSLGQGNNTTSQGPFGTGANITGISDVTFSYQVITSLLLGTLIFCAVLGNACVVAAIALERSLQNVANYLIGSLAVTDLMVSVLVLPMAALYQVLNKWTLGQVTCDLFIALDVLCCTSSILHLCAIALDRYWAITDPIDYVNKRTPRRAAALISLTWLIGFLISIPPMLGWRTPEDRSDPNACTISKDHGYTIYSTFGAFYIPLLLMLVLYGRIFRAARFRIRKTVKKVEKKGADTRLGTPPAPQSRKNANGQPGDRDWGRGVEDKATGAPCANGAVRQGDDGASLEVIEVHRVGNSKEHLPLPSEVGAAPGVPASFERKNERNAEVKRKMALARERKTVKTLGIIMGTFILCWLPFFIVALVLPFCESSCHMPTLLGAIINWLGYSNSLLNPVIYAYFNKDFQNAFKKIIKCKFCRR
Method: The compounds are tested for 5-HT1A receptor antagonism activity in a test involving the antagonism of 5-carboxamido-tryptamine in the guinea-pig ileum in vitro (based upon the procedure of Fozard et al, Br. J. Pharmac., 1985, 86, 601P).

IC50 (5-HT1A receptor [1]): 0.6 nM | Kb (5-HT1A receptor [2]): 0.398 nM
Structure (SMILES): O=C(C(CCN1CCN(c2cccc3c2OCCO3)CC1)c1ccccc1)N1CCCCCC1 (centres unmarked) [Example 8, 2,3,4,5,6,7-Hexahydro-1-{4-[1-[4-(2,3-dihydro-1,4-benzodioxin-5-yl)piperazinyl]]-2-phenylbutyryl}-1H-azepine]
